Assay results from EP0819136B1, “MDP DERIVATIVES AND CONJUGATES HAVING HAEMATOPOIETIC FUNCTION STIMULATING ACTIVITY, AND COMPOSITIONS CONTAINING SAME” (VACSYN S.A., priority 1995, dated 1996).

What was measured:
CSH = experiment: Circulating CSH at different stages of differentiation, colony cultures of blood mononuclear cells from treated mice (Example 7, figures 14a-d); format: in vivo, souris (10 Balb/c par groupe); settings: once daily for three consecutive days, MDM 25 mg/kg with or without AZT 50 mg/kg; blood collected 24 h after the last administration
Description: Ces expériences ont pour objet la mise en évidence des différentes populations de CSH présentes dans le sang circulant.
Ont été recherchés les stades suivants depuis les plus primitifs décelables en culture et qui ne présentent aucun signe de différenciation comme les CFAC (Coblestone Area Forming Cells) et LTC-IC (Long Term Culture - Initiating Cells) jusqu'au GM-CFU (Granulocyte Macrophage - Colony Forming Units) en passant par des stades intermédiaires comme les HPP et LPP-CFU (respectivement High Proliferating Potential and Low Proliferating Potential CFU). Dans tous les cas, les conditions de cultures, en particulier leur durée, ont été choisies pour permettre une détection optimale des différentes populations considérées.
Ont été comparés pour cette étude l'effet de l'injection de saline (X-), d'AZT à 50 mg/kg, du MDM à 25 mg/kg et le mélange des deux sur le nombre de CSH cirulants. Les cellules mononucléaires après purification ont été cultivées pendant 5 jours pour dénombrer les GM-UFC (pour granulocytes - macrophages unités formant colonies), pendant 28 jours pour dénombrer les unités formant colonies à bas potentiel prolifératif (LPP) et les UFC à haut potentiel prolifératif (HPP). Les CAFC ont été dénombrés après 14 jours de culture. Les LTC-IC après 28 jours. Les résultats sont présentés sur les figures 14a, 14b, 14c et 14d respectivement. […]

[1] = test system: leucocytes circulants normaux (majoritairement neutrophiles et lymphocytes) et immatures (myélocytes); experiment: Circulating blood cell counts in mice after 4 consecutive days of i.v. Muradimétide alone (Example 1); format: in vivo, souris; settings: for Nbre de Leucocytes / Nbre de Lymphocytes / Nbre de Myélocytes / Nbre de Neutrophiles: Muradimétide 25 mg/kg i.v., 4 consecutive days
Protocol: Le tableau 1 ci-dessous représente les numérations des leucocytes, neutrophiles, lymphocytes et myélocytes en fonction du temps après traitement par le Muradimétide seul administré à la dose de 25 mg/kg. Le traitement est effectué pendant 4 jours consécutifs par injection intraveineuse.
Effet de 4 jours de traitement consécutifs des souris par voie veineuse avec le Muradimétide (25 mg/kg) sur les modifications du nombre de leucocytes circulants normaux (majoritairement neutrophiles et lymphocytes) et immatures (myélocytes).

[2] = test system: neutrophiles, leucocytes et myélocytes; experiment: Blood cell counts in mice given i.v. AZT 40 mg/kg plus Muradimétide i.v. or p.o. (Example 2); format: in vivo, souris CDI mâles
Protocol: Le traitement par l'AZT seul induit classiquement une diminution du nombre des leucocytes et des neutrophiles circulants. Cette diminution est suivie par une reconstitution intervenant environ 4 à 7 jours après le début du traitement. Quand le Muradimétide a été administré par voie générale ou par la voie orale après un traitement par 40 mg/kg d'AZT, il n'y a pas de baisse du nombre de cellules et au contraire il y a une multiplication par au moins 1,5 du nombre de leucocytes et un triplement de celui des neutrophiles et cela dès après 4 jours. Les résultats sont représentés dans le tableau 2 ci-dessous.
Des souris CDI mâles (5 par groupe) ont été injectées avec de l'AZT à la dose de 40 mg par kg aux jours 0 à 3. Le Muradimétide est administré les mêmes jours à la dose de 10 mg par kg en intraveineux ou de 50 mg par kg per os. Les comptages cellulaires sont réalisés au jour 0 (avant le traitement), et aux jours 3 et 4. Tableau 2

[3] = AZT 40 mg/kg i.v. days 0-3 + Muradimétide i.v. 10mg/kg days 0-3, day 0 (before treatment)
[4] = AZT 40 mg/kg i.v. days 0-3 + Muradimétide i.v. 10mg/kg days 0-3, day 3
[5] = AZT 40 mg/kg i.v. days 0-3 + Muradimétide i.v. 10mg/kg days 0-3, day 4
[6] = AZT 40 mg/kg i.v. days 0-3 + Muradimétide p.o 50 mg/Kg days 0-3, day 0 (before treatment)
[7] = AZT 40 mg/kg i.v. days 0-3 + Muradimétide p.o 50 mg/Kg days 0-3, day 3
[8] = AZT 40 mg/kg i.v. days 0-3 + Muradimétide p.o 50 mg/Kg days 0-3, day 4
[9] = Muradimétide by general or oral route after AZT 40 mg/kg, after 4 days

**Q.** What does the source list for `COC(=O)CC[C@@H](NC(=O)[C@H](C)NC(=O)[C@@H](C)O[C@H]1[C@H](O)[C@@H](CO)OC(O)[C@@H]1NC(C)=O)C(=O)OC` (stereo partly drawn) [Muradimétide, Nac-Mur-L-Ala-D-Glu-[OCH3]-OCH3]?
**A.** nombre de CSH circulants (GM-CFU, LPP-CFU, HPP-CFU) (CSH): apparaît clairement; Nbre de Leucocytes ([1]; day 0): 50 ± 14° x 10^5/ml; Nbre de Lymphocytes ([1]; day 0): 38±12 x 10^5/ml; Nbre de Myélocytes ([1]; day 0): 7 ± 6 x 10^4/ml; Nbre de Neutrophiles ([1]; day 0): 11±3 x 10^5/ml; Nbre de Leucocytes ([1]; day 2): 52±12 x 10^5/ml; Nbre de Lymphocytes ([1]; day 2): 41 ± 17 x 10^5/ml; Nbre de Myélocytes ([1]; day 2): 8±8 x 10^4/ml; Nbre de Neutrophiles ([1]; day 2): 10±3 x 10^5/ml; Nbre de Leucocytes ([1]; day 3): 52 ± 17 x 10^5/ml; Nbre de Lymphocytes ([1]; day 3): 35 ± 13 x 10^5/ml; Nbre de Myélocytes ([1]; day 3): 40±5 x 10^4/ml; Nbre de Neutrophiles ([1]; day 3): 13 ± 5 x 10^5/ml; Nbre de Leucocytes ([1]; day 4): 52 ± 15 x 10^5/ml; Nbre de Lymphocytes ([1]; day 4): 34 ± 8 x 10^5/ml; Nbre de Myélocytes ([1]; day 4): 72 ± 27 x 10^4/ml; Nbre de Neutrophiles ([1]; day 4): 12 ± 4 x 10^5/ml; Nbre de Leucocytes ([1]; day 7): 50±13 x 10^5/ml; Nbre de Lymphocytes ([1]; day 7): 38±10 x 10^5/ml; Nbre de Myélocytes ([1]; day 7): 4 ± 4 x 10^4/ml; Nbre de Neutrophiles ([1]; day 7): 12±4 x 10^5/ml; nombre de myélocytes circulants (result in words) ([1]; Muradimétide alone 25 mg/kg i.v., days 3 and 4): augmentation du nombre de myélocytes circulants qui est hautement significative; pourcentage de myélocytes ou de promyélocytes (result in words) ([2]; AZT 40 mg/kg i.v. + Muradimétide, whatever the route of administration): augmentation spectaculaire; Leucocytes [2, 3]: 6.0 ± 3.4 x 10^6/ml; Myelocytes [2, 3]: 5 ± 7 x 10^4 /ml; Neutrophiles [2, 3]: 2.0 ± 1.3 x 10^6 /ml; Leucocytes [2, 4]: 5.9 ± 2.9 x 10^6/ml; Myelocytes [2, 4]: 145 ± 83 x 10^4 /ml; Neutrophiles [2, 4]: 1.5 ± 0.8 x 10^6 /ml; Leucocytes [2, 5]: 7.6 ± 1.6 x 10^6/ml; Myelocytes [2, 5]: 117 ± 46 x 10^4 /ml; Neutrophiles [2, 5]: 4.6 ±1.5 x 10^6 /ml; Leucocytes [2, 6]: 4.8 ± 0.4 x 10^6/ml; Myelocytes [2, 6]: 14 ± 13 x 10^4 /ml; Neutrophiles [2, 6]: 1.4 ± 0.5 x 10^6 /ml; Leucocytes [2, 7]: 6.1 ± 1.4 x 10^6/ml; Myelocytes [2, 7]: 123 ± 55 x 10^4 /ml; Neutrophiles [2, 7]: 1.6 ± 0.5 x 10^6 /ml; Leucocytes [2, 8]: 8.1 ± 2.9 x 10^6/ml; Myelocytes [2, 8]: 138 ± 59 x 10^4 /ml; Neutrophiles [2, 8]: 4.3 ± 2.47 x 10^6 /ml; multiplication du nombre de leucocytes [2, 9]: ≥ 1,5; nombre de neutrophiles (fold change) [2, 9]: triplement
